Biological target: Aβ42 (Homo sapiens, UniProt P05067)
Test: Th-T (thioflavin-T) assay of Aβ42 aggregation
Assay type: biochemical
Conditions: for Th-T fluorescence of Aβ42 with compound, mean of three wells (Fig. 7a source data): concentration 50, unit not given

Chain of Aβ42 (P05067 672-713): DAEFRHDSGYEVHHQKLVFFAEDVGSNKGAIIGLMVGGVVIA

`C=C1CCC2C(C)(CCC=C(C)C)C(O)CCC2(C)C1Cc1c(OC)oc(C)c(C(=O)OC)c1=O` (stereo not drawn) [Compound 14] was tested, and the “Th-T fluorescence of Aβ42 with compound, mean of three wells (Fig. 7a source data)” value (from here on “Th-T fluorescence of Aβ42 with compound”) (time-course reading M143) was 0.7264, the “Th-T fluorescence of Aβ42 with compound” value (time-course reading M144) was 0.7091 and the “Th-T fluorescence of Aβ42 with compound” value (time-course reading M145) was 0.7134. For the same compound, the “Th-T fluorescence of Aβ42 (sheet Fig. 7a), mean of three wells” value (head suffix _10 (concentration 10), reading M63) was 2.709, the “Th-T fluorescence of Aβ42 (sheet Fig. 7a), mean of three wells” value (head suffix _10 (concentration 10), reading M64) was 2.685 and the “Th-T fluorescence of Aβ42 (sheet Fig. 7a), mean of three wells” value (head suffix _10 (concentration 10), reading M65) was 2.69. For the same compound, the “Th-T fluorescence of Aβ42 (sheet Fig. 7a), mean of three wells” value (head suffix _10 (concentration 10), reading M66) was 2.693, the “Th-T fluorescence of Aβ42 (sheet Fig. 7a), mean of three wells” value (head suffix _10 (concentration 10), reading M67) was 2.707 and the “Th-T fluorescence of Aβ42 (sheet Fig. 7a), mean of three wells” value (head suffix _10 (concentration 10), reading M68) was 2.71. For the same compound, the “Th-T fluorescence of Aβ42 (sheet Fig. 7a), mean of three wells” value (head suffix _10 (concentration 10), reading M69) was 2.6808, the “Th-T fluorescence of Aβ42 (sheet Fig. 7a), mean of three wells” value (head suffix _10 (concentration 10), reading M70) was 2.69 and the “Th-T fluorescence of Aβ42 (sheet Fig. 7a), mean of three wells” value (head suffix _10 (concentration 10), reading M71) was 2.719. For the same compound, the “Th-T fluorescence of Aβ42 (sheet Fig. 7a), mean of three wells” value (head suffix _10 (concentration 10), reading M72) was 2.755, the “Th-T fluorescence of Aβ42 (sheet Fig. 7a), mean of three wells” value (head suffix _10 (concentration 10), reading M73) was 2.763 and the “Th-T fluorescence of Aβ42 (sheet Fig. 7a), mean of three wells” value (head suffix _10 (concentration 10), reading M74) was 2.748. For the same compound, the “Th-T fluorescence of Aβ42 (sheet Fig. 7a), mean of three wells” value (head suffix _10 (concentration 10), reading M75) was 2.779, the “Th-T fluorescence of Aβ42 (sheet Fig. 7a), mean of three wells” value (head suffix _10 (concentration 10), reading M76) was 2.777 and the “Th-T fluorescence of Aβ42 (sheet Fig. 7a), mean of three wells” value (head suffix _10 (concentration 10), reading M77) was 2.827. For the same compound, the “Th-T fluorescence of Aβ42 (sheet Fig. 7a), mean of three wells” value (head suffix _10 (concentration 10), reading M78) was 2.836, the “Th-T fluorescence of Aβ42 (sheet Fig. 7a), mean of three wells” value (head suffix _10 (concentration 10), reading M79) was 2.796 and the “Th-T fluorescence of Aβ42 (sheet Fig. 7a), mean of three wells” value (head suffix _10 (concentration 10), reading M80) was 2.789. For the same compound, the “Th-T fluorescence of Aβ42 (sheet Fig. 7a), mean of three wells” value (head suffix _10 (concentration 10), reading M81) was 2.809, the “Th-T fluorescence of Aβ42 (sheet Fig. 7a), mean of three wells” value (head suffix _10 (concentration 10), reading M82) was 2.8409 and the “Th-T fluorescence of Aβ42 (sheet Fig. 7a), mean of three wells” value (head suffix _10 (concentration 10), reading M83) was 2.8356. The “Th-T fluorescence of Aβ42 (sheet Fig. 7a), mean of three wells” value (head suffix _10 (concentration 10), reading M84) was 2.801, the “Th-T fluorescence of Aβ42 (sheet Fig. 7a), mean of three wells” value (head suffix _20 (concentration 20), reading M63) was 2.081 and the “Th-T fluorescence of Aβ42 (sheet Fig. 7a), mean of three wells” value (head suffix _20 (concentration 20), reading M64) was 2.033. The “Th-T fluorescence of Aβ42 (sheet Fig. 7a), mean of three wells” value (head suffix _20 (concentration 20), reading M65) was 2.056, the “Th-T fluorescence of Aβ42 (sheet Fig. 7a), mean of three wells” value (head suffix _20 (concentration 20), reading M66) was 1.992 and the “Th-T fluorescence of Aβ42 (sheet Fig. 7a), mean of three wells” value (head suffix _20 (concentration 20), reading M67) was 2.022. For the same compound, the “Th-T fluorescence of Aβ42 (sheet Fig. 7a), mean of three wells” value (head suffix _20 (concentration 20), reading M68) was 2.054, the “Th-T fluorescence of Aβ42 (sheet Fig. 7a), mean of three wells” value (head suffix _20 (concentration 20), reading M69) was 2.0412 and the “Th-T fluorescence of Aβ42 (sheet Fig. 7a), mean of three wells” value (head suffix _20 (concentration 20), reading M70) was 2.012. The “Th-T fluorescence of Aβ42 (sheet Fig. 7a), mean of three wells” value (head suffix _20 (concentration 20), reading M71) was 1.97, the “Th-T fluorescence of Aβ42 (sheet Fig. 7a), mean of three wells” value (head suffix _20 (concentration 20), reading M72) was 1.988 and the “Th-T fluorescence of Aβ42 (sheet Fig. 7a), mean of three wells” value (head suffix _20 (concentration 20), reading M73) was 1.972. The “Th-T fluorescence of Aβ42 (sheet Fig. 7a), mean of three wells” value (head suffix _20 (concentration 20), reading M74) was 1.9541, the “Th-T fluorescence of Aβ42 (sheet Fig. 7a), mean of three wells” value (head suffix _20 (concentration 20), reading M75) was 1.951 and the “Th-T fluorescence of Aβ42 (sheet Fig. 7a), mean of three wells” value (head suffix _20 (concentration 20), reading M76) was 1.9741. The “Th-T fluorescence of Aβ42 (sheet Fig. 7a), mean of three wells” value (head suffix _20 (concentration 20), reading M77) was 1.953, the “Th-T fluorescence of Aβ42 (sheet Fig. 7a), mean of three wells” value (head suffix _20 (concentration 20), reading M78) was 1.933 and the “Th-T fluorescence of Aβ42 (sheet Fig. 7a), mean of three wells” value (head suffix _20 (concentration 20), reading M79) was 1.92. The “Th-T fluorescence of Aβ42 (sheet Fig. 7a), mean of three wells” value (head suffix _20 (concentration 20), reading M80) was 1.931, the “Th-T fluorescence of Aβ42 (sheet Fig. 7a), mean of three wells” value (head suffix _20 (concentration 20), reading M81) was 1.911 and the “Th-T fluorescence of Aβ42 (sheet Fig. 7a), mean of three wells” value (head suffix _20 (concentration 20), reading M82) was 1.915. The “Th-T fluorescence of Aβ42 (sheet Fig. 7a), mean of three wells” value (head suffix _20 (concentration 20), reading M83) was 1.888, the “Th-T fluorescence of Aβ42 (sheet Fig. 7a), mean of three wells” value (head suffix _20 (concentration 20), reading M84) was 1.889 and the “Th-T fluorescence of Aβ42 (sheet Fig. 7a), mean of three wells” value (head suffix _50 (concentration 50), reading M63) was 3.83. For the same compound, the “Th-T fluorescence of Aβ42 (sheet Fig. 7a), mean of three wells” value (head suffix _50 (concentration 50), reading M64) was 3.705, the “Th-T fluorescence of Aβ42 (sheet Fig. 7a), mean of three wells” value (head suffix _50 (concentration 50), reading M65) was 3.586 and the “Th-T fluorescence of Aβ42 (sheet Fig. 7a), mean of three wells” value (head suffix _50 (concentration 50), reading M66) was 3.506. For the same compound, the “Th-T fluorescence of Aβ42 (sheet Fig. 7a), mean of three wells” value (head suffix _50 (concentration 50), reading M67) was 3.421, the “Th-T fluorescence of Aβ42 (sheet Fig. 7a), mean of three wells” value (head suffix _50 (concentration 50), reading M68) was 3.307 and the “Th-T fluorescence of Aβ42 (sheet Fig. 7a), mean of three wells” value (head suffix _50 (concentration 50), reading M69) was 3.193. The “Th-T fluorescence of Aβ42 (sheet Fig. 7a), mean of three wells” value (head suffix _50 (concentration 50), reading M70) was 3.0995, the “Th-T fluorescence of Aβ42 (sheet Fig. 7a), mean of three wells” value (head suffix _50 (concentration 50), reading M71) was 3.0146 and the “Th-T fluorescence of Aβ42 (sheet Fig. 7a), mean of three wells” value (head suffix _50 (concentration 50), reading M72) was 2.931.
